One data set can be described thus: in vitro. Particulars: human, Caco-2, Caco-2 permeability Papp A to B. A general note: Caco-2 monolayers are a common model of the intestinal barrier.
For the next data set, the system named is M^pro. Particulars: cited from earlier work.

Structures are written as SMILES.

The term Papp A→B denotes the apparent permeability from the apical to the basolateral side of a cell layer. As to `Cn1cnc(Cn2c(=O)[nH]/c(=N\c3cc4cn(C)nc4cc3Cl)n(Cc3cc(F)c(F)cc3F)c2=O)n1` [Ensitrelvir], in “in vitro”, the Papp A→B was 0.42 ×10⁻⁶ cm/s.

By IC50 is commonly meant the midpoint of a concentration-inhibition curve. On to `C[C@H](NC(=O)[C@@H](c1cccnc1)N(C(=O)C(Cl)Cl)c1ccc(-c2ccccc2)cc1)c1ccccc1` [Jun9-62-2R], for which the IC50 in the data set on M^pro was 430 nM.

As for `CC(C)(C)[C@H](NC(=O)C(F)(F)F)C(=O)N1C[C@H]2[C@@H]([C@H]1C(=O)N[C@H](C#N)C[C@@H]1CCNC1=O)C2(C)C` [Nirmatrelvir], the Papp A→B in “in vitro” is < 0.1 ×10⁻⁶ cm/s.

(Values after PMC12081877 (Nature Communications, 2025).)
